Values of other authors as cited in patent US20230180818A1, “AEROSOLISED FORMULATION” (NICOVENTURES TRADING LIMITED, priority 2018, published 2023).

Conditions: compared to base cyclodextrins such as β-cyclodextrin

For 2-hydroxy-propyl-β-cyclodextrin, the solubility in water is listed as “increased solubility in water”.
